Results reported in patent US20100028266A1, “Composition and methods for treating allergic response” (Alpha Synergy Development. Inc., priority 2008, published 2010).

Tests used:
[1] = tested on: eyes of a patient with an ocular condition (baseline redness 4/4); conditions: brimonidine at 0.01%, 0.02%, […] (left eye) compared with tetrahydrozoline 0.05%, oxymetazoline […], naphazoline […] (right eye)
Description: In an average clinical situation, baseline redness is at 1-1.5/4.

[2] = tested on: patients with chronic red eyes; assay: Example 5: chronic red eyes, one eye each treatment, patient satisfaction assessment; format: in vivo, human
Method: The treatment was through drops twice a day for three to five weeks. At the end, patient satisfaction assessment was conducted.

[3] = tested on: eyes of a patient with an ocular condition of moderate hyperemia; assay: FIGS. 5A-C: reversal of pre-induced rebound hyperemia; format: in vivo, human; conditions: brimonidine at […] given after VISINE Original
Description: FIG. 5A is a baseline visual appearance of two eyes of a patient with an ocular condition.

Brc1c(N=C2NCCN2)ccc2nccnc12.O=C(O)C(O)C(O)C(=O)O [brimonidine, 5-bromo-6-(2-imidazolidinylideneamino)quinoxaline L-tartrate]
scleral whitening brightening effects [1]: significant scleral whitening brightening effects | patients who preferred the treatment ([2]; brimonidine at […] in one eye, Naphcon-A in the other, twice a day for three to five weeks): 42% | patient-reported redness ([2]; brimonidine at […], drops twice a day for three to five weeks): All patients reported reduced redness | effect on VISINE Original induced rebound hyperemia, right eye [3]: reversing the VISINE Original® induced rebound hyperemia
